Measured values taken from patent publication USRE38984E1, “Antifungal combination therapy” (Merck & Co., Inc., priority 1996, dated 2006).

Tests used:
A. fumigatus [1] = assay: broth microdilution antifungal susceptibility / drug combination testing in vitro (NCCLS M27-T); assay type: cell-based
Source text: (§1) This has been shown using a broth microdilution technique which is the standard method for antifungal susceptibility testing proposed by the NCCLS (protocol M27-T). Sub-inhibitory concentrations of Compound I in combination with sub-inhibitory concentrations of AmB and sub-inhibitory concentrations of FCZ were employed. The minimal inhibitory concentrations (MICS) for AmB and Compound I were defined as the lowest drug concentration at which there was an absence of growth.
(§2) Additional drug combination testing in vitro was performed to evaluate combinations of Compound I with AmB and FCZ against clinical isolates. There was no antagonism evident between Compound I and AmB against C. albicans, A. fumigatus and C. neoformans. Fractional inhibitory indices (FIC) were approximately 0.50 or lower, indicative of additive or synergistic activity.

C. albicans [2] = assay: as above; assay type: cell-based
Source text: as §1, §2

C. neoformans [3] = assay: as above; assay type: cell-based
Source text: as §1, §2

C. albicans [4] = assay: drug interaction and efficacy study against disseminated candidiasis; assay type: in vivo; details: Compound I 0.03 mg/kg and lower plus AmB 0.03 mg/kg and lower
Procedure: (§3) Drug interaction and efficacy studies with Compound I combined with either AmB or FCZ against disseminated candidiasis, aspergillosis and cryptococcosis were performed.

A. fumigatus [5] = assay: drug interaction and efficacy study against disseminated aspergillosis; assay type: in vivo; details: Compound I 0.008 mg/kg combined with AmB 0.12 mg/kg, over the compounds administered alone
Procedure: as §3

C. neoformans [6] = assay: drug interaction and efficacy study against cryptococcosis in mice; assay type: in vivo
Procedure: as §3

[7] = drug interaction and efficacy studies against disseminated candidiasis, aspergillosis and cryptococcosis (overall findings); assay type: in vivo
Procedure: as §3

[8] = Compound I with AmB, sub-inhibitory concentrations
[9] = in vitro drug combination, clinical isolates, indicative of additive or synergistic activity

CCC(C)CC(C)CCCCCCCCC(=O)N[C@H]1C[C@@H](O)[C@@H](NCCN)NC(=O)[C@@H]2[C@@H](O)CCN2C(=O)[C@H]([C@H](O)CCN)NC(=O)[C@H]([C@H](O)[C@@H](O)c2ccc(O)cc2)NC(=O)[C@@H]2C[C@@H](O)CN2C(=O)[C@H]([C@@H](C)O)NC1=O (stereo partly drawn) [Compound I]
activity of combination therapy in vitro (A. fumigatus [1]; [8]): enhanced activity
Fractional inhibitory indices (FIC) (A. fumigatus [1]; [9]): ≤ 0.50
antagonism between Compound I and AmB (A. fumigatus [1]; in vitro, clinical isolates): no antagonism
activity of combination therapy in vitro (C. albicans [2]; [8]): enhanced activity
Fractional inhibitory indices (FIC) (C. albicans [2]; [9]): ≤ 0.50
antagonism between Compound I and AmB (C. albicans [2]; in vitro, clinical isolates): no antagonism
effect on activity of fluconazole (CFU numbers) (C. neoformans [3]; Compound I combined with fluconazole 0.25, 0.50 and 1.0 μg/ml): significantly enhanced the activity of fluconazole
activity of combination therapy in vitro (C. neoformans [3]; Compound I with AmB and FCZ, sub-inhibitory concentrations, strains of C. neoformans): enhanced activity
colony forming units (CFUs) (C. neoformans [3]; amphotericin B 0.0075, 0.015 and 0.03 μg/ml combined with Compound I 4, 8 and 16 μg/ml): markedly reduced
Fractional inhibitory indices (FIC) (C. neoformans [3]; [9]): ≤ 0.50
antagonism between Compound I and AmB (C. neoformans [3]; in vitro, clinical isolates): no antagonism
efficacy of combination versus single agents (C. albicans [4]): more efficacious than either agent administered alone
survival (A. fumigatus [5]): Significant improvement in survival
antagonism of efficacy (C. neoformans [6]; FCZ in combination with Compound I, cryptococcosis in mice): no antagonism of efficacy
effects on efficacy (C. neoformans [6]; combinations of Compound I and FCZ at certain concentrations): Beneficial effects on efficacy
FIC values in vivo ([7]; Compound I and AmB, suggesting additive or synergistic activity in vivo): approximately 0.50
adverse effects with combinations ([7]; Compound I combined with either AmB or FCZ, at high, use or lower concentrations): no adverse effects
antagonism of efficacy ([7]; either AmB or FCZ combined with Compound I): no antagonism of efficacy
